Test results reported in ChEMBL document CHEMBL1201862, “PubChem BioAssay data set” (2004).
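Assay format: 96-well plates, 48-hour exposure. GI50: concentration for 50% inhibition of growth.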 Calls of active or inactive are those of the source. Rule as the data show it: active = GI50 up to about 1.1 µM and inactive = higher.

Columns and labels:
Assay in all cases: NCI tumour cell line growth inhibition, 48 h
[1] = tested on: SNB-75
[2] = tested on: A549
[3] = tested on: SF-539
[4] = tested on: M19-MEL
[5] = tested on: UO-31
[6] = tested on: A498
[7] = tested on: 786-0
[8] = tested on: RPMI-8226
[9] = tested on: K562
[10] = tested on: HOP-18
[11] = tested on: TK-10
[12] = tested on: NCI-H23
[13] = tested on: KM12
[14] = tested on: UACC-257
[15] = tested on: LXFL 529
[16] = tested on: U-251
[17] = tested on: UACC-62
[18] = tested on: HOP-62
[19] = tested on: SK-MEL-28
[20] = tested on: HOP-92
[21] = tested on: SK-MEL-5
[22] = tested on: OVCAR-8
[23] = tested on: NCI-H460
[24] = tested on: SK-OV-3
[25] = tested on: SF-268
[26] = tested on: HCT-116
[27] = tested on: ACHN
[28] = tested on: SNB-78
[29] = tested on: HL-60
[30] = tested on: Malme-3M
[31] = tested on: OVCAR-4
[32] = tested on: IGROV-1
[33] = tested on: LOX IMVI
[34] = tested on: RXF 393
[35] = tested on: DMS-114
[36] = tested on: EKVX
[37] = tested on: OVCAR-5
[38] = tested on: XF498
[39] = tested on: M14
[40] = tested on: HCT-15
[41] = tested on: SW-620
[42] = tested on: MOLT-4
[43] = tested on: NCI-H226
[44] = tested on: SK-MEL-2
[45] = tested on: KM-20L2
[46] = tested on: SNB-19
[47] = tested on: SR
[48] = tested on: CCRF-CEM
[49] = tested on: COLO 205
[50] = tested on: CAKI-1
[51] = tested on: HT-29
[52] = tested on: DLD-1
[53] = tested on: HCC 2998
[54] = tested on: NCI-H522
[55] = tested on: SF-295
[56] = tested on: OVCAR-3
[57] = tested on: SN12C

OCCCNc1ccnc2cc(Cl)ccc12
GI50 [1]: > 100 µM (inactive)
GI50 [2]: > 100 µM (inactive)
GI50 [3]: > 100 µM (inactive)
GI50 [4]: > 100 µM (inactive)
GI50 [5]: 25.5 µM (inactive)
GI50 [6]: > 100 µM (inactive)
GI50 [7]: > 100 µM (inactive)
GI50 [8]: > 100 µM (inactive)
GI50 [9]: > 100 µM (inactive)
GI50 [10]: > 100 µM (inactive)
GI50 [11]: 21 µM (inactive)
GI50 [12]: > 100 µM (inactive)
GI50 [13]: > 100 µM (inactive)
GI50 [14]: > 100 µM (inactive)
GI50 [15]: > 100 µM (inactive)
GI50 [16]: > 100 µM (inactive)
GI50 [17]: > 100 µM (inactive)
GI50 [18]: > 100 µM (inactive)
GI50 [19]: > 100 µM (inactive)
GI50 [20]: > 100 µM (inactive)
GI50 [21]: > 100 µM (inactive)
GI50 [22]: > 100 µM (inactive)
GI50 [23]: > 100 µM (inactive)
GI50 [24]: > 100 µM (inactive)
GI50 [25]: > 100 µM (inactive)
GI50 [26]: 57.9 µM (inactive)
GI50 [27]: > 100 µM (inactive)
GI50 [28]: > 100 µM (inactive)
GI50 [29]: > 100 µM (inactive)
GI50 [30]: > 100 µM (inactive)
GI50 [31]: > 100 µM (inactive)
GI50 [32]: > 100 µM (inactive)
GI50 [33]: > 100 µM (inactive)
GI50 [34]: > 100 µM (inactive)
GI50 [35]: > 100 µM (inactive)
GI50 [36]: > 100 µM (inactive)
GI50 [37]: > 100 µM (inactive)
GI50 [38]: > 100 µM (inactive)
GI50 [39]: > 100 µM (inactive)
GI50 [40]: > 100 µM
GI50 [41]: > 100 µM (inactive)
GI50 [42]: > 100 µM (inactive)
GI50 [43]: 61.9 µM (inactive)
GI50 [44]: > 100 µM (inactive)
GI50 [45]: > 100 µM (inactive)
GI50 [46]: > 100 µM (inactive)
GI50 [47]: > 100 µM (inactive)
GI50 [48]: > 100 µM (inactive)
GI50 [49]: > 100 µM (inactive)
GI50 [50]: > 100 µM (inactive)
GI50 [51]: > 100 µM (inactive)
GI50 [52]: > 100 µM (inactive)
GI50 [53]: > 100 µM (inactive)
GI50 [54]: > 100 µM (inactive)
GI50 [55]: > 100 µM (inactive)
GI50 [56]: > 100 µM (inactive)
GI50 [57]: > 100 µM (inactive)
